Data from patent US8609654B1, “Compounds for enzyme inhibition” (Onyx Therapeutics, Inc., priority 2006, dated 2013).

How the values were obtained:
[1] = test system: chymotryptic-like activity of isolated 20S constitutive proteasome vs immunoproteasome; assay: Enzyme kinetic assay with isolated 20S proteasome preps, EC50 ratio of CT-L activity (20S ratio); type: biochemical; details: constitutive proteasome to immunoproteasome, >1 = prefers immunoproteasome
Description: Enzyme kinetic assays such as those disclosed in U.S. application Ser. No. 09/569,748, Example 2 and Stein et al., Biochem. (1996), 35, 3899-3908 use isolated 20S proteasome preps with greater than 90% constitutive proteasome subunits or immunoproteasome subunits. The inhibitory preference of the molecule is then based on the EC50 ratio of the chymotryptic-like activity of the constitutive proteasome to that of the immunoproteasome (20S ratio).

[2] = molecular target: T1, 26S proteasome CT-L activity in lysate of HT29 (constitutive) vs Sultan/Thp1 (immunoproteasome) cells (Homo sapiens, UniProt P28062+P28074); assay: CT-L EC50 with 26S proteasome in cell lysate (Lysate ratio); type: biochemical; details: HT29 lysate to Sultan/Thp1 lysate, >1 = prefers immunoproteasome
T1 construct: using 26S proteasome in the context of a cell lysate; endogenous in cells; host or cells: HT29 lysate (constitutive); Sultan or THP1 lysate (immunoproteasome)
T1 sequence (P28074 60-263): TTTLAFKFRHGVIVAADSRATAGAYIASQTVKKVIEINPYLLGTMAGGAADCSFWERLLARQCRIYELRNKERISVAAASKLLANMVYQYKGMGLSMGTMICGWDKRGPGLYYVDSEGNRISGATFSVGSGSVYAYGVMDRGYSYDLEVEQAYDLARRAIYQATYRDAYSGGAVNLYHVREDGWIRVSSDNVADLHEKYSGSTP
T1 sequence (P28062 73-276): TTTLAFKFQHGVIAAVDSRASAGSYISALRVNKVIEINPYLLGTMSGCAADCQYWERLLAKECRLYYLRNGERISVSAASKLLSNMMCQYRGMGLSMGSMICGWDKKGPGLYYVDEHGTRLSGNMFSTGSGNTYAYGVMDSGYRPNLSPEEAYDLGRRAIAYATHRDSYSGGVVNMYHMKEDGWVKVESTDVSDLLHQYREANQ
Description: Alternatively, the CT-L EC50 of a compound can be determined using 26S proteasome in the context of a cell lysate. Compound is added to lysate generated from cells that either predominantly express constitutive proteasome (e.g., HT29) or immunoproteasome (e.g., THP1). Again, the inhibitory preference is then based on the EC50 ratio (Lysate ratio).

[3] = molecular target: T2, 20S proteasome subunit β5 vs immunoproteasome subunit LMP7 in RPMI-8226 cells (Homo sapiens, UniProt P28062+P28074); assay: ELISA-based active site assay in RPMI-8226 cells (ELISA ratio); type: cell-based; details: EC50 ratio with β5 antibody to LMP7 antibody, RPMI-8226 cells; >1 = prefers immunoproteasome
T2 construct: Cells expressing approximately equivalent amounts of immuno- and constitutive proteasome (e.g., RPMI-8226) are treated with test compound; endogenous in cells; host or cells: RPMI-8226 multiple myeloma cells
T2 sequence (P28074 60-263): T1 sequence (P28074 60-263)
T2 sequence (P28062 73-276): T1 sequence (P28062 73-276)
Description: Lastly, a more cell-based approach can be utilized. Cells expressing approximately equivalent amounts of immuno- and constitutive proteasome (e.g., RPMI-8226) are treated with test compound, followed by the method for determining the activity of a proteasome inhibitor as described in application Ser. No. 11/254,541. The ratio of the EC50 generated in the ELISA-based assay using β5 antibody and LMP7 antibodies (ELISA ratio) provides the basis for determining the inhibitory preference of the test compound. […] In all three assays, a ratio of less than one denotes the molecule inhibits the CT-L activity of the constitutive proteasome better than that of the immunoproteasome. Ratios greater than one signifies the molecule inhibits chymotrypsin-like activity of the immunoproteasome better than that of the constitutive proteasome.
A suitable ELISA assay may be found in U.S. patent application Ser. No. 11/254,541, incorporated herein in its entirety. Briefly, RPMI-8226 cells were treated with 0.1 nM to 1 μM of proteasome Inhibitor B. The samples were then washed with phosphate-buffered saline (PBS) and lysed in hypotonic buffer (20 mM Tris pH 8, 5 mM EDTA) (Tris-HCl and EDTA are available from Teknova, Inc., Hollister, Calif.). Cellular debris was removed by centrifugation at 14,000 rpm in a microfuge (4° C.) for 2 min. The supernatant was transferred to a fresh tube, snap frozen in liquid nitrogen and stored at −80° C. After thawing on ice, the samples (30 μl for assays run in triplicate) were treated with 500 nM of Inhibitor A for 1 hr at room temperature. Following treatment with Inhibitor A, the lysate was denatured by addition of seven volumes of 1% SDS (210 μl) (available from Bio-Rad, Hercules, Calif.) and heating at 99° C. with vigorous shaking for 5 min. The sample was allowed to cool and two volumes (60 μl) of 10% Triton X-100 (available from Bio-Rad, Hercules, Calif.) was added.
Streptavidin sepharose beads (6.5 μl/well) (available from Amersham Biosciences, Piscataway, N.J.), were washed three times with 1 ml PBS (available from Mediatech, Inc., Herndon, Va.) in a microcentrifuge tube. The beads were resuspended in ELISA wash/block buffer (PBS+0.1% Tween 20+1% bovine serum albumin; 20 μl/well) and transferred to the wells of a 96 well filter plate (BSA is available from Sigma, St. Louis, Mo.; Tween is available from Calbiochem, San Diego, Calif.). Denatured whole blood or PBMC lysates that were treated with Inhibitor 3 were added to the filter plate wells containing the streptavidin sepharose beads (each sample assayed in triplicate) and incubated for 1 hr at room temperature with shaking (MultiScreen-DV Opaque Plates with low protein binding durapore membrane; available from Millipore, Billerica, Mass.). The unbound material was removed by gentle filtration and the beads were washed six times with ELISA wash/block buffer (200 μl each).
Primary antibody to human 20S proteasome subunit (35 (rabbit polyclonal antibody; available from Biomol, Plymouth Meeting, Pa.) or human 20S immunoproteasome subunit LMP7 (rabbit polyclonal antibody; available from Affinity BioReagents, Golden, Colo.) was diluted 1:1000 in ELISA wash/block buffer, added to the beads (100 μl/well), and incubated for 1 hr at room temperature on an orbital shaker. The beads were washed six times with ELISA wash/block buffer with gentle filtration. Secondary antibody treatment (1:5000) and washing are as described for primary antibody (goat anti-rabbit antibody-HRP conjugate; available from Biosource, Camarillo, Calif.). The beads were then resuspended in 100 μl chemiluminescent detection reagent (Super Signal Pico Chemiluminescent Substrate™; available from Pierce, Rockford, Ill.) and luminescence was read on a Tecan plate reader. […]

Row | 20 S ratio (const:immuno) [1] | Lysate ratio (HT29:Sultan/Thp1) [2] | Elisa ratio (beta5:LMP7) [3] | SMILES
1 | >1.0 | >3.0 | >1.0 | CC1(C(=O)[C@H](Cc2ccccc2)NC(=O)[C@H](Cc2c[nH]c3ccccc23)NC(=O)[C@H](CCC(N)=O)NC(=O)OCc2ccccc2)CO1 (stereo partly drawn)
2 | >5.0 | >3.0 | >2.0 | CC[C@H](C)[C@@H](NC(=O)OCc1ccccc1)C(=O)N[C@@H](Cc1ccccc1)C(=O)N[C@@H](Cc1ccccc1)C(=O)C1(C)CO1 (stereo partly drawn)
3 | >5.0 | >5.0 | >3.0 | CC[C@@H](NC(=O)OCc1ccccc1)C(=O)N[C@@H](Cc1ccccc1)C(=O)N[C@@H](Cc1ccccc1)C(=O)C1(C)CO1 (stereo partly drawn)
4 | >3.0 | >3.0 | >2.0 | CC1(C(=O)[C@H](Cc2ccccc2)NC(=O)[C@H](Cc2ccccc2)NC(=O)C(CC(=O)O)NC(=O)OCc2ccccc2)CO1 (stereo partly drawn)
5 | >5.0 | >5.0 | >5.0 | C[C@@H](NC(=O)OCc1ccccc1)C(=O)N[C@@H](Cc1c[nH]c2ccccc12)C(=O)N[C@@H](Cc1ccccc1)C(=O)C1(C)CO1 (stereo partly drawn)
6 | >3.0 | >3.0 | >1.0 | CC1(C(=O)[C@H](Cc2ccccc2)NC(=O)[C@H](Cc2c[nH]c3ccccc23)NC(=O)[C@@H](NC(=O)OCc2ccccc2)c2ccccc2)CO1 (stereo partly drawn)
7 | >5.0 | >5.0 | >3.0 | C[C@@H](NC(=O)OCc1ccccc1)C(=O)N[C@@H](Cc1c[nH]c2ccccc12)C(=O)N[C@@H](Cc1ccc(O)cc1)C(=O)C1(C)CO1 (stereo partly drawn)
8 | >5.0 | >3.0 | >5.0 | CC[C@H](C)C(NC(=O)OCc1ccccc1)C(=O)N[C@@H](Cc1c[nH]c2ccccc12)C(=O)N[C@@H](Cc1ccccc1)C(=O)C1(C)CO1 (stereo partly drawn)
9 | >5.0 | >5.0 | >5.0 | CC(C)C[C@@H](NC(=O)OCc1ccccc1)C(=O)N[C@@H](Cc1c[nH]c2ccccc12)C(=O)N[C@@H](Cc1ccccc1)C(=O)C1(C)CO1 (stereo partly drawn)
10 | >3.0 | >3.0 | >2.0 | CC1(C(=O)[C@H](Cc2ccccc2)NC(=O)[C@H](Cc2c[nH]c3ccccc23)NC(=O)C(CC(=O)O)NC(=O)OCc2ccccc2)CO1 (stereo partly drawn)

Continued, molecule first:

Row | SMILES | 20 S ratio (const:immuno) [1] | Lysate ratio (HT29:Sultan/Thp1) [2] | Elisa ratio (beta5:LMP7) [3]
11 | CC1(C(=O)[C@H](Cc2ccccc2)NC(=O)[C@H](Cc2ccccc2)NC(=O)CNC(=O)OCc2ccccc2)CO1 (stereo partly drawn) | >3.0 | >5.0 | >2.0
12 | CC(NC(=O)OCc1ccccc1)C(=O)N1Cc2ccccc2C[C@@H]1C(=O)N[C@@H](Cc1ccccc1)C(=O)C1(C)CO1 (stereo partly drawn) | <1.0 | <1.0 | <0.5
13 | CC(NC(=O)OCc1ccccc1)C(=O)N[C@@H](Cc1ccccc1)C(=O)N[C@@H](C)C(=O)C1(C)CO1 (stereo partly drawn) | <0.5 | <0.5 | <0.5
14 | CC(C)C[C@H](NC(=O)[C@H](Cc1ccccc1)NC(=O)C(C)NC(=O)OCc1ccccc1)C(=O)C1(C)CO1 (stereo partly drawn) | <0.5 | <0.5 | <1.0
15 | CC[C@H](C)C(NC(=O)[C@H](Cc1c[nH]c2ccccc12)NC(=O)[C@H](C)NC(=O)OCc1ccccc1)C(=O)C1(C)CO1 (stereo partly drawn) | <0.5 | <0.5 | <1.0
16 | Cc1ccc(C[C@H](NC(=O)[C@H](C)NC(=O)OCc2ccccc2)C(=O)N[C@@H](Cc2ccccc2)C(=O)C2(C)CO2)cc1 (stereo partly drawn) | >2.0 | >5.0 | >5.0
17 | CC(C)C[C@H](NC(=O)OCc1ccccc1)C(=O)N[C@@H](Cc1ccccc1)C(=O)N[C@@H](CC(C)C)C(=O)C1(C)CO1 (stereo partly drawn) | <0.5 | <0.5 | <0.5
18 | CC1(C(=O)[C@H](Cc2ccccc2)NC(=O)[C@H](Cc2ccccc2)NC(=O)[C@@H](Cc2ccccc2)NC(=O)OCc2ccccc2)CO1 (stereo partly drawn) | >5.0 | >2.0 | >3.0
19 | CC(C)C[C@H](NC(=O)OCc1ccccc1)C(=O)N[C@H](CC(C)C)C(=O)N[C@@H](Cc1ccccc1)C(=O)C1(C)CO1 (stereo partly drawn) | <0.5 | <0.5 | <0.5
20 | C[C@H](NC(=O)OCc1ccccc1)C(=O)N[C@@H](Cc1ccc(C#N)cc1)C(=O)N[C@@H](Cc1ccccc1)C(=O)C1(C)CO1 (stereo partly drawn) | >1.0 | >2.0 | >5.0
21 | C[C@H](NC(=O)OCc1ccccc1)C(=O)N[C@@H](Cc1ccc(C(C)(C)C)cc1)C(=O)N[C@@H](Cc1ccccc1)C(=O)C1(C)CO1 (stereo partly drawn) | >2.0 | >2.0 | >3.0
